# Source: paper PMC4286721, “Structural insights into the catalytic mechanism of aldehyde-deformylating oxygenases” (Protein & Cell, 2014)
# Columns and labels:
# [1] = target: T1, SeADO (cADO from Synechococcus elongates PCC7942) (Synechococcus elongatus, UniProt Q54764); experiment: X-ray crystal structure (WT1, […] A; also WT0, […] A, iron-free); GC-QqQ-MS/MS of extracted ligand; format: binding; settings: co-purified ligand in substrate channel; head group bound to Fe2 of di-iron center in WT1; modelled as long-chain fatty alcohol, C18 identified by MS
# T1 construct: gene Synpcc7942_1593
# T1 sequence (Q54764 1-231): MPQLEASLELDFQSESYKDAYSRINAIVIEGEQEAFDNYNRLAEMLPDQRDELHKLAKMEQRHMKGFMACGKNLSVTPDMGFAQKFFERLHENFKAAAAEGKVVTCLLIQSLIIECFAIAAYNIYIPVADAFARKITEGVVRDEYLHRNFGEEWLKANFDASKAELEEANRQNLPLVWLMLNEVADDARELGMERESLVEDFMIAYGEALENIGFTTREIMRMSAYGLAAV
# [2] = target: T1, SeADO (cADO from Synechococcus elongates PCC7942); experiment: GC of n-hexane in headspace; format: biochemical; settings: 2 mM n-heptanal, 4% DMSO, ferredoxin, ferredoxin reductase, 800 uM NADPH, 60 uM ferrous ammonium sulphate, O2, HEPES pH 7.2, 37 C
SMILES,"X-ray crystal structure (WT1, 2.3 A; also WT0, 2.26 A, iron-free); GC-QqQ-MS/MS [1]",GC of n-hexane in headspace [2]
"CCCCCCCCCCCCCCCCCCO [Lred, C18 fatty alcohol]",the dominant of the remaining components was identified as a C18 fatty alcohol,–
CCCCCCC=O [n-heptanal],–,N-heptanal was selected as the substrate to measure the activity of cADO proteins.
